Test results reported in the NIST ThermoML archive (doi:10.1016/j.jct.2013.09.008).
± gives the expanded uncertainty stated by the source.

Assay: mn = molality of the nth substance listed, in mol/kg
Settings: 101.33 kPa, Liquid; for speed of sound: Frequency=3 MHz, Linear variable-path acoustic interferometer; for mass density: Pycnometric method; for viscosity: Capillary tube (Ostwald / Ubbelohde) method

N[C@@H](Cc1ccccc1)C(=O)O [L-phenylalanine] + O
Settings	mass density [kg/m3]	speed of sound [m/s]	viscosity [mPa·s]
293.15 K, m1 = 0.0249	999.4 ± 0.35	1488.8 ± 2.5	–
293.15 K, m1 = 0.0498	1000.55 ± 0.35	1493 ± 2.5	–
293.15 K, m1 = 0.0749	1001.71 ± 0.35	1496.2 ± 2.5	–
293.15 K, m1 = 0.0999	1002.88 ± 0.35	1498.3 ± 2.5	–
293.15 K, m1 = 0.125	1004.04 ± 0.35	1499.4 ± 2.5	–
293.15 K, m1 = 0.1499	1005.2 ± 0.35	1499.4 ± 2.5	–
298.15 K, m1 = 0.0249	998.23 ± 0.37	1501.9 ± 2.5	0.9038 ± 0.019
298.15 K, m1 = 0.0498	999.39 ± 0.37	1505.9 ± 2.5	0.9168 ± 0.019
298.15 K, m1 = 0.0749	1000.55 ± 0.37	1509 ± 2.5	0.9299 ± 0.02
298.15 K, m1 = 0.0999	1001.72 ± 0.37	1511 ± 2.5	0.9431 ± 0.02
298.15 K, m1 = 0.125	1002.88 ± 0.37	1512 ± 2.5	0.9561 ± 0.02
298.15 K, m1 = 0.1499	1004.05 ± 0.37	1511.9 ± 2.5	0.9691 ± 0.021
303.15 K, m1 = 0.0249	996.84 ± 0.4	1513.1 ± 2.5	0.8083 ± 0.017
303.15 K, m1 = 0.0498	998 ± 0.4	1516.8 ± 2.5	0.819 ± 0.017
303.15 K, m1 = 0.0749	999.17 ± 0.4	1519.5 ± 2.5	0.8294 ± 0.018
303.15 K, m1 = 0.0999	1000.34 ± 0.4	1521.2 ± 2.5	0.8399 ± 0.018
303.15 K, m1 = 0.125	1001.51 ± 0.4	1521.8 ± 2.5	0.8505 ± 0.018
303.15 K, m1 = 0.1499	1002.68 ± 0.4	1521.3 ± 2.5	0.8605 ± 0.018
308.15 K, m1 = 0.0249	995.24 ± 0.43	1524.1 ± 2.5	0.7285 ± 0.015
308.15 K, m1 = 0.0498	996.4 ± 0.43	1527.4 ± 2.5	0.7372 ± 0.016
308.15 K, m1 = 0.0749	997.58 ± 0.43	1529.8 ± 2.5	0.7462 ± 0.016
308.15 K, m1 = 0.0999	998.75 ± 0.43	1531.1 ± 2.5	0.7545 ± 0.016
308.15 K, m1 = 0.125	999.92 ± 0.43	1531.4 ± 2.5	0.7635 ± 0.016
308.15 K, m1 = 0.1499	1001.09 ± 0.43	1530.6 ± 2.5	0.7722 ± 0.016
313.15 K, m1 = 0.0249	993.43 ± 0.46	1530.8 ± 2.5	0.6607 ± 0.014
313.15 K, m1 = 0.0498	994.6 ± 0.46	1533.8 ± 2.5	0.668 ± 0.014
313.15 K, m1 = 0.0749	995.78 ± 0.46	1535.8 ± 2.5	0.6749 ± 0.014
313.15 K, m1 = 0.0999	996.96 ± 0.46	1536.8 ± 2.5	0.682 ± 0.015
313.15 K, m1 = 0.125	998.14 ± 0.46	1536.7 ± 2.5	0.6897 ± 0.015
313.15 K, m1 = 0.1499	999.32 ± 0.46	1535.7 ± 2.5	0.6968 ± 0.015
318.15 K, m1 = 0.0249	991.43 ± 0.48	1536.5 ± 2.5	0.604 ± 0.013
318.15 K, m1 = 0.0498	992.61 ± 0.48	1539.1 ± 2.5	0.6102 ± 0.013
318.15 K, m1 = 0.0749	993.8 ± 0.48	1540.8 ± 2.5	0.616 ± 0.013
318.15 K, m1 = 0.0999	994.98 ± 0.48	1541.5 ± 2.5	0.622 ± 0.013
318.15 K, m1 = 0.125	996.17 ± 0.48	1541.3 ± 2.5	0.6285 ± 0.013
318.15 K, m1 = 0.1499	997.36 ± 0.48	1540 ± 2.5	0.6346 ± 0.013
